Experimental data: patent US20180085381A1, “Adjunctive Therapy With 25-Hydroxyvitamin D” (priority 2014, published 2018)

Experiments:
[1] = system: adult patients diagnosed with metastases in bone originating from breast or prostate cancer; type: in vivo, human
Protocol: At the start of the study, all patients have plasma PTH greater than 70 pg/mL as evidence of SHPT, serum calcium less than 9.8 mg/dL, spot urine Ca:Cr ratio≦0.25 (≦250 mg/g creatinine) and an estimated glomerular filtration rate greater than 15 mL/min/1.73 m^2. […] Denosumab or zoledronic acid are administered according to the typical standard of care for each patient's condition.
The 52-week study consists of a 40 week dose escalation phase followed by a 12-week maintenance phase. At the end of the maintenance phase, there is a two-week follow up phase. At the start of the study, all patients receive an initial daily dose of 30 mcg 25-hydroxyvitamin D3, which is increased at four-week intervals over the course of the dose escalation phase up to a maximum daily dose of 300 mcg. The daily dose achieved by the end of the dose escalation study is the daily dose administered during the maintenance phase.
Blood samples are collected at 2-week intervals for monitoring serum levels of calcium and phosphorus. Samples are collected at 4-week intervals for monitoring plasma levels of PTH and PTHrP and serum total 25-hydroxyvitamin D, 24,25-dihydroxyvitamin D3, calcitriol, and free and total calcifediol. Serum vitamin D metabolites and markers of bone metabolism, immune function, and tumor burden are measured at the beginning of the dose escalation phase and at the beginning and end of the maintenance phase. Urine samples are collected at 4-week intervals for monitoring the Ca/Cr ratio and urine chemistry. The genotype of vitamin D binding protein is determined for each subject at the beginning of the dose escalation phase.

[2] = system: adult male and female patients with osteoporosis; assay: Efficacy study in osteoporosis patients treated with an antiresorptive agent (denosumab); type: in vivo, human; settings: for incidence of hypocalcemia and severity of secondary hyperparathyroidism: once stable dosing has been achieved, denosumab-treated
[3] = system: castration-resistant prostate cancer or estrogen-independent breast cancer metastatic to bone; assay: Efficacy study in patients with metastatic bone disease for prevention of SREs (24-month, placebo-controlled); type: in vivo, human
Protocol: Denosumab or zoledronic acid are administered according to the typical standard of care for each patient's condition. Patients are monitored for SREs, including by appropriate non-invasive imaging techniques, and serum markers of tumor burden and bone metabolism at 3-month intervals, and at monthly intervals for serum and urine calcium levels and plasma PTH. Cancer progression is monitored at quarterly intervals.

[4] = system: adult male patients with bone-metastasized castration-resistant prostate cancer; assay: Efficacy study in prostate cancer patients treated with denosumab; settings: for incidence of hypocalcemia and severity of SHPT and hypercalcemia: once stable dosing has been achieved, denosumab-treated
Protocol: In a randomized, double-blind controlled study, patients are treated with denosumab (120 mg every four weeks). All denosumab-treated patients are randomized to receive daily oral treatment with one softgel capsule containing either 30 mcg of 25-hydroxyvitamin D3 in a modified release formulation or 400 IU of Vitamin D3 in an immediate release formulation. A total of 500 subjects participate in this study, all of whom are aged 18 years or older with histologically confirmed prostate cancer. […] All patients receive a radioisotope bone scan during screening with subsequent imaging by CT, MRI, or plain radiograph if needed to confirm bone metastases. All subjects receive calcium supplements (500 mg/day) and abstain from taking other Vitamin D supplements for 60 days before study start and continuing through study termination, and from significant sun exposure.
All subjects begin daily dosing with softgel capsules at the start of denosumab treatment. Serum total 25-hydroxyvitamin D, PTH, calcium, phosphorus, N- and C-telopeptides, and P1NP, and urinary calcium, phosphorus and creatinine, are measured monthly. Radiographic bone scans are conducted every 6 months to detect skeletal metastases, with a second imaging modality (CT, MRI, or plain radiograph) used to confirm diagnosis of any metastases detected. Bone mineral density at four sites (total hip, femoral neck, ⅓ radius and lumbar spine) is determined at the start of the study and thereafter at yearly intervals. After 3 months, the daily dosage of 25-hydroxyvitamin D3 capsules is maintained unchanged in patients whose serum total 25-hydroxyvitamin D is between 50 and 90 ng/mL, and increased by one 30 mcg capsule in patients whose serum total 25-hydroxyvitamin D is below 50 ng/mL.

[5] = system: adult patients diagnosed with metastases in bone originating from breast or prostate cancer; assay: Efficacy study in patients with metastatic bone disease receiving an antiresorptive agent (6-month, placebo-controlled); type: in vivo, human
Protocol: Denosumab or zoledronic acid are administered according to the typical standard of care for each patient's condition. […] Samples are collected at monthly intervals for monitoring serum and urine levels of calcium, plasma levels of PTH and serum total 25-hydroxyvitamin D. Serum markers of tumor burden and bone metabolism, as well as cancer progression are assessed at 3-month intervals.

[6] = system: adult female patients with breast cancer; assay: Efficacy study in breast cancer patients treated with denosumab; type: in vivo, human; settings: for incidence of hypocalcemia and severity of secondary hyperparathyroidism: once stable dosing has been achieved, denosumab-treated
[7] = system: patients with bone metastases; settings: patients with bone metastases treated with zoledronic acid; cited from earlier work
[8] = with denosumab, versus denosumab and vitamin D3
[9] = 24 months, with denosumab or zoledronic acid, compared to placebo
[10] = with denosumab or zoledronic acid, compared to placebo combination
[11] = with denosumab, 24 months, compared to denosumab and Vitamin D3
[12] = 6 months, with denosumab or zoledronic acid, compared to placebo

SMILES: C=C1CC[C@H](O)C/C1=C/C=C1\CCC[C@]2(C)[C@@H]([C@H](C)CCCC(C)(C)O)CC[C@@H]12 [25-hydroxyvitamin D3]
- plasma PTH in the dose escalation phase ([1]; 30 to 300 mcg daily, raised at four-week intervals, with denosumab or zoledronic acid): decreases
- change in serum 1,25-dihydroxyvitamin D ([1]; human, in vivo): significant increases
- change in serum 24,25-dihydroxyvitamin D ([1]; human, in vivo): significant increases
- change in serum total 25-hydroxyvitamin D ([1]; human, in vivo): significant increases
- serum calcium in the dose escalation phase ([1]; human, in vivo): gradually rises
- serum levels of 25-hydroxyvitamin D3 after 24 months ([2]; human, in vivo): higher and more consistent
- side effects related to calcium and PTH metabolism ([2]; human, in vivo): without causing unacceptable side effects
- incidence of hypocalcemia and severity of secondary hyperparathyroidism [2]: markedly reduced
- increases in bone mineral density ([2]; with denosumab, 24 months, versus denosumab and Vitamin D3): larger increases
- serum PTH levels after 24 months [2, 8]: lower
- plasma PTH [3, 9]: decrease
- risk of hypocalcemia [3, 9]: reduced risk
- serum calcium [3, 9]: greater increase
- observed time to a post-treatment SRE ([3]; compared to placebo): significantly increasing
- tumor progression ([3]; compared to placebo): inhibiting tumor progression
- time to additional bone metastasis or SRE [3, 10]: increased delay
- side effects related to calcium and PTH metabolism ([4]; modified release formulation, with denosumab): without causing unacceptable side effects
- incidence of hypocalcemia and severity of SHPT and hypercalcemia [4]: markedly reduced
- incidence of hypocalcemia [4, 11]: significantly lower incidence
- increases in bone mineral density [4, 11]: larger increases
- plasma PTH levels [4, 11]: reduced
- time to first post-treatment SRE [4, 11]: significantly delayed
- serum PTH levels after 24 months [4, 8]: lower
- serum levels of 25-hydroxyvitamin D3 after 24 months [4, 8]: higher and more consistent
- plasma PTH [5, 12]: decrease
- risk of hypocalcemia [5, 12]: reduced risk
- serum calcium [5, 12]: greater increase
- side effects related to calcium and PTH metabolism ([5]; modified release formulation): without causing unacceptable side effects
- cancer progression ([5]; modified release formulation, 6 months): delaying cancer progression
- time to additional bone metastasis [5, 10]: increased delay
- serum levels of 25-hydroxyvitamin D3 after 24 months ([6]; human, in vivo): higher and more consistent
- side effects related to calcium and PTH metabolism ([6]; human, in vivo): without causing unacceptable side effects
- incidence of hypocalcemia and severity of secondary hyperparathyroidism [6]: markedly reduced
- incidence of hypocalcemia [6, 11]: significantly lower incidence
- increases in bone mineral density [6, 11]: larger increases
- time to additional bone metastasis [6, 11]: significantly delayed
- serum PTH levels after 24 months [6, 8]: lower

SMILES: C=C1CC[C@H](O)C/C1=C/C=C1\CCC[C@]2(C)[C@@H]([C@H](C)CCCC(C)C)CC[C@@H]12 [Vitamin D3, cholecalciferol, reference compound]
- incidence of hypocalcemia and severity of secondary hyperparathyroidism [2]: occur more frequently
- incidence of hypocalcemia and severity of SHPT and hypercalcemia [4]: more frequently
- incidence of hypocalcemia and severity of secondary hyperparathyroidism [6]: occur more frequently

SMILES: O=P(O)(O)C(O)(Cn1ccnc1)P(=O)(O)O [zoledronic acid]
- patients who developed hypocalcemia [7]: 39%
